This note sets out measurements from the supplement of paper PMC8967900.

Some test systems named below: MHH-CALL-2; REH; CCRF-HSB2.
Experiment in all cases: selective drug sensitivity score (sDSS, relative to normal bone marrow) (sDSS (score)); higher = more potent and effective on the cell line relative to normal bone marrow cells
Holding throughout (conditions): 72 h
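Further: ALL cell lines in 384-well plates, five doses spanning 10,000-fold, each plate scaled between vehicle and 100 µmol/L benzalkonium chloride controls, sDSS an adapted area-under-curve metric.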

As to `CC(C)Oc1ccc(C(=O)N[C@H](CNC(=O)CN(C)C)Cc2ccc(-c3cn4cccc([C@H](C)O)c4n3)cc2)cc1Cl` (top concentration 10000 nM), the “selective drug sensitivity score” value in the test on MHH-CALL-2 turned out to be 8.58; with REH, 12.1; with CCRF-HSB2, 11.

Turning to `CCn1c(-c2nonc2N)nc2cnc(Oc3cccc(NC(=O)c4ccc(OCCN5CCOCC5)cc4)c3)cc21` (top concentration 10000 nM), the “selective drug sensitivity score” value with MHH-CALL-2 came to 8.36; with REH it was 4.56; in the test with CCRF-HSB2 it was 13.6.

In the case of `CC(C)(C#N)c1cc(Cn2cncn2)cc(C(C)(C)C#N)c1` [Anastrozole] (top concentration 10000 nM), the “selective drug sensitivity score” value in the test with MHH-CALL-2, with REH and in the test with CCRF-HSB2 was 0 throughout.

Turning to `Cc1sc2c(c1C)C(c1ccc(Cl)cc1)=N[C@@H](CC(=O)Nc1ccc(O)cc1)c1nnc(C)n1-2` [Birabresib] (top concentration 10000 nM), the “selective drug sensitivity score” value in the test with MHH-CALL-2 was 7.02; with REH, -3.18; in the test on CCRF-HSB2, -0.98.

Regarding `Nc1ccn([C@@H]2O[C@H](CO)[C@@H](O)[C@@H]2O)c(=O)n1` [Cytarabine] (top concentration 10000 nM), the “selective drug sensitivity score” value with MHH-CALL-2 is 19.6; with REH, 21.8; in the test with CCRF-HSB2 it was 28.7.

For the molecule `COc1cccc2c1C(=O)c1c(O)c3c(c(O)c1C2=O)C[C@@](O)(C(C)=O)C[C@@H]3O[C@H]1C[C@H](N)[C@H](O)[C@H](C)O1` [Daunorubicin] (top concentration 1000 nM), the entries for the “selective drug sensitivity score” value in the test on MHH-CALL-2, in the test on REH and in the test on CCRF-HSB2 were 6.16, 6.16 and 12.5, respectively.

In the case of `Nc1ncn([C@H]2C[C@H](O)[C@@H](CO)O2)c(=O)n1` [Decitabine] (top concentration 10000 nM), the figures for the “selective drug sensitivity score” value in the test on MHH-CALL-2, with REH and in the test with CCRF-HSB2 were 1.04, 3.94 and 1.14, respectively.

Consider `CCN(CC)C(=S)SSC(=S)N(CC)CC` [Disulfiram(+CuCl2)] (top concentration 50000 nM), for which the entries for the “selective drug sensitivity score” value in the test on MHH-CALL-2, with REH and in the test on CCRF-HSB2 were 8.58, -0.32 and -2.12, respectively.

Regarding `Nc1nc(F)nc2c1ncn2[C@@H]1O[C@H](CO)[C@@H](O)[C@@H]1O` [Fludarabine] (top concentration 10000 nM), the “selective drug sensitivity score” value in the test on MHH-CALL-2 was 8; with REH, -1.3; in the test with CCRF-HSB2 it was 1.5.

Turning to `Nc1nc(OCc2cc(Br)cs2)c2[nH]cnc2n1` [Lomeguatrib] (top concentration 10000 nM), the results for the “selective drug sensitivity score” value in the test with MHH-CALL-2, with REH and with CCRF-HSB2 were 0, 1.2 and 0, respectively.

As for `Cc1cc(OCc2nnc(SC3CCCC3)n2-c2cccnc2)ccc1-c1ccc(S(C)(=O)=O)cc1` [NMS-873] (top concentration 10000 nM), the results for the “selective drug sensitivity score” value with MHH-CALL-2, in the test on REH and in the test with CCRF-HSB2 were 6.76, 12 and 10.5, respectively.

Consider `COC(=O)c1ccc2c(c1)NC(=O)/C2=C(\Nc1ccc(N(C)C(=O)CN2CCN(C)CC2)cc1)c1ccccc1` [Nintedanib] (top concentration 10000 nM), for which the entries for the “selective drug sensitivity score” value in the test with MHH-CALL-2, in the test on REH and in the test on CCRF-HSB2 were 1.04, -5.16 and 28.6, respectively.

Take `O=C(c1cc(Cc2n[nH]c(=O)c3ccccc23)ccc1F)N1CCN(C(=O)C2CC2)CC1` [Olaparib] (top concentration 10000 nM): the “selective drug sensitivity score” value in the test with MHH-CALL-2 was determined as 8.88; in the test on REH it was 1.48; in the test on CCRF-HSB2 it was 3.98.

For the molecule `O=C(O)C(=O)O.[NH-][C@@H]1CCCC[C@H]1[NH-].[Pt+2]` [Oxaliplatin] (top concentration 100000 nM), the “selective drug sensitivity score” value in the test with MHH-CALL-2 worked out at 13.9; in the test on REH it was 10; with CCRF-HSB2, 15.

On to `CS(=O)(=O)N1CCN(Cc2cc3nc(-c4cccc5[nH]ncc45)nc(N4CCOCC4)c3s2)CC1` [Pictilisib] (top concentration 10000 nM), for which the “selective drug sensitivity score” value with MHH-CALL-2 is 12.3; in the test on REH it was 10.5; with CCRF-HSB2 it was 4.56.

Turning to `CCOC(=O)C1=CCCC[C@H]1S(=O)(=O)Nc1ccc(F)cc1Cl` [Resatorvid] (top concentration 10000 nM), the “selective drug sensitivity score” value in the test on MHH-CALL-2, in the test on REH and in the test on CCRF-HSB2 was 0 each time.

Turning to `CO[C@H]1C[C@@H]2CC[C@@H](C)[C@@](O)(O2)C(=O)C(=O)N2CCCC[C@H]2C(=O)O[C@H]([C@H](C)C[C@@H]2CC[C@@H](OP(C)(C)=O)[C@H](OC)C2)CC(=O)[C@H](C)/C=C(\C)[C@@H](O)[C@@H](OC)C(=O)[C@H](C)C[C@H](C)/C=C/C=C/C=C/1C` [Ridaforolimus] (top concentration 100 nM), the “selective drug sensitivity score” value in the test with MHH-CALL-2 was -2.24; in the test with REH, 6.96; in the test with CCRF-HSB2 it was 7.46.

On to `CCc1c2c(nc3ccc(O)cc13)-c1cc3c(c(=O)n1C2)COC(=O)[C@]3(O)CC` [SN-38] (top concentration 10000 nM), for which the “selective drug sensitivity score” value in the test on MHH-CALL-2 was 25.2; in the test with REH it was 27.2; in the test on CCRF-HSB2, 28.

Turning to `CC[C@@H](C(=O)[C@@H](C)[C@@H](O)[C@H](C)[C@@H]1O[C@@H]([C@@H](CC)C(=O)O)CC[C@@H]1C)[C@H]1O[C@]2(C=C[C@@H](O)[C@]3(CC[C@@](C)([C@H]4CC[C@](O)(CC)[C@H](C)O4)O3)O2)[C@H](C)C[C@@H]1C` [Salinomycin] (top concentration 50000 nM), the “selective drug sensitivity score” value was 10.8 with MHH-CALL-2, -13 with REH and 0.9 with CCRF-HSB2.

As to `CNC(=O)CN1CCC(Oc2cc3c(Nc4cccc(Cl)c4F)ncnc3cc2OC)CC1` [Sapitinib] (top concentration 1000 nM), the “selective drug sensitivity score” value in the test on MHH-CALL-2 came out at 0; with REH, 0; with CCRF-HSB2, 3.3.

With `O[C@H]1CC[C@H](Nc2ncc3nc(Nc4c(F)cc(F)cc4F)n([C@H]4CCOC4)c3n2)CC1` [Tanzisertib] (top concentration 10000 nM), the “selective drug sensitivity score” value came out at 0.9 in the test on MHH-CALL-2, 0 with REH and 0.2 in the test with CCRF-HSB2.

Take `CO[C@H]1C[C@@H]2CC[C@@H](C)[C@@](O)(O2)C(=O)C(=O)N2CCCC[C@H]2C(=O)O[C@H]([C@H](C)C[C@@H]2CC[C@@H](OC(=O)C(C)(CO)CO)[C@H](OC)C2)CC(=O)[C@H](C)/C=C(\C)[C@@H](O)[C@@H](OC)C(=O)[C@H](C)C[C@H](C)/C=C/C=C/C=C/1C` [Temsirolimus] (top concentration 100 nM): the “selective drug sensitivity score” value with MHH-CALL-2 was -0.34; in the test on REH, 3.96; in the test with CCRF-HSB2, 7.76.

As for `COc1cc([C@@H]2c3cc4c(cc3[C@@H](O[C@@H]3O[C@@H]5CO[C@@H](c6cccs6)O[C@H]5[C@H](O)[C@H]3O)[C@H]3COC(=O)[C@H]23)OCO4)cc(OC)c1O` [Teniposide] (top concentration 10000 nM), the “selective drug sensitivity score” value in the test with MHH-CALL-2, in the test on REH and in the test with CCRF-HSB2 was 0 each time.

For the molecule `Oc1nc(-c2ccc(C(F)(F)F)cc2)nc2c1CSCC2` [XAV939] (top concentration 10000 nM), the “selective drug sensitivity score” value in the test on MHH-CALL-2 is 0.26; with REH it was -0.04; in the test with CCRF-HSB2, 0.36.
